Measured values from article PMC11345841, “Exploring 2-Sulfonylpyrimidine Warheads as Acrylamide Surrogates for Targeted Covalent Inhibition: A BTK Story” (Journal of Medicinal Chemistry, 2024).
Like-named read-outs stand apart in the source and are kept apart here.

What was measured:
[1] = target: T1, ABL1(F317L)-nonphosphorylated (Homo sapiens, UniProt P00519, F317L); assay: KINOMEscan ScanTK; format: binding
T1 construct: purchased Eurofins DiscoverX KINOMEscan (scanTK)

EGFR(G719C) = target: T2, EGFR(G719C) (Homo sapiens, UniProt P00533, G719C); assay: KINOMEscan ScanTK; format: binding
T2 construct: purchased Eurofins DiscoverX KINOMEscan (scanTK)
T2 sequence (P00533 25-1210 G719C): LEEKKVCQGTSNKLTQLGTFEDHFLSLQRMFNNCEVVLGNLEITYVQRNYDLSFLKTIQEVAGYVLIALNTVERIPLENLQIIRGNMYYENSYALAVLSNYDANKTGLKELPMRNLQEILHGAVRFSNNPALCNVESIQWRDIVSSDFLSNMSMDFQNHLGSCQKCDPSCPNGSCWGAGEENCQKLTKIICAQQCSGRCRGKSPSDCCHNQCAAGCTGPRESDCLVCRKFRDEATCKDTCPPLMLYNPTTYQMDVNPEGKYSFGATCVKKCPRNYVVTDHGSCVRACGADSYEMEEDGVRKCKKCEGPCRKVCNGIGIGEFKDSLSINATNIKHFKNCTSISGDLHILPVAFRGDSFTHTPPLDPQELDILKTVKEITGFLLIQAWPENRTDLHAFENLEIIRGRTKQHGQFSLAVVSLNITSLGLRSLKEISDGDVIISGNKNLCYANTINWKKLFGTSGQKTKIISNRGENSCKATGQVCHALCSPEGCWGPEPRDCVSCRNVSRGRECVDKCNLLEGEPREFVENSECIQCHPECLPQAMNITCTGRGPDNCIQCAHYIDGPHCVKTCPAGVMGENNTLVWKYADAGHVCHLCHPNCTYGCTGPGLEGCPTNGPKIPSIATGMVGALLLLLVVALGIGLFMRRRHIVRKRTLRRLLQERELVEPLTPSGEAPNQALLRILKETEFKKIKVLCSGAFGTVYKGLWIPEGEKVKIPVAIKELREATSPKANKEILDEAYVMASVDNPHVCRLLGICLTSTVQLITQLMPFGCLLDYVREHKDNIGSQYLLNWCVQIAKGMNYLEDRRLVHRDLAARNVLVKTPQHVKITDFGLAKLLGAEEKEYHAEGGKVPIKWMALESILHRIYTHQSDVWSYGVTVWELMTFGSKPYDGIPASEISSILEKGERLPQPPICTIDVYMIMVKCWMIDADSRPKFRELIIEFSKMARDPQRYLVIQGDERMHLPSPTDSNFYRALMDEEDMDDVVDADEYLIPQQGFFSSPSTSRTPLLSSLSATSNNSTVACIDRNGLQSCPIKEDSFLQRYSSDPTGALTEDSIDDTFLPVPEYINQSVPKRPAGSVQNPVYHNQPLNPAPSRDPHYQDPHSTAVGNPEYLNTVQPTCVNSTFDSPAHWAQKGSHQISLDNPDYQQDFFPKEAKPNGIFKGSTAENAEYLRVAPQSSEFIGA

[2] = target: T3, EGFR(L747-E749del, A750P) (Homo sapiens, UniProt P00533, A750P/DEL747-749); assay: KINOMEscan ScanTK; format: binding
T3 construct: purchased Eurofins DiscoverX KINOMEscan (scanTK)
T3 sequence (P00533 with tags, fused parts or gaps DEL747-749/A750P limits assumed): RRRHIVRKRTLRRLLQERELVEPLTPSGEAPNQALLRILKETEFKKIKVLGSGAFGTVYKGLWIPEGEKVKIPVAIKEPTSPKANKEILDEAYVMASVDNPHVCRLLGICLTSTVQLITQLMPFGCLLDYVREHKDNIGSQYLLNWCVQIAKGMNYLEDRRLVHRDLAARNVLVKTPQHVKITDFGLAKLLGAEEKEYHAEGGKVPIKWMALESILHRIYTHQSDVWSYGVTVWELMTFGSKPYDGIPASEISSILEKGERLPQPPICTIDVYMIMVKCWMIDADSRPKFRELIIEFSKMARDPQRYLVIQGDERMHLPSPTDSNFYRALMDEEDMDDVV

[3] = target: T4, EGFR(L747-S752del, P753S) (Homo sapiens, UniProt P00533, DEL747-752/P753S); assay: KINOMEscan ScanTK; format: binding
T4 construct: purchased Eurofins DiscoverX KINOMEscan (scanTK)
T4 sequence (P00533 with tags, fused parts or gaps DEL747-752/P753S limits assumed): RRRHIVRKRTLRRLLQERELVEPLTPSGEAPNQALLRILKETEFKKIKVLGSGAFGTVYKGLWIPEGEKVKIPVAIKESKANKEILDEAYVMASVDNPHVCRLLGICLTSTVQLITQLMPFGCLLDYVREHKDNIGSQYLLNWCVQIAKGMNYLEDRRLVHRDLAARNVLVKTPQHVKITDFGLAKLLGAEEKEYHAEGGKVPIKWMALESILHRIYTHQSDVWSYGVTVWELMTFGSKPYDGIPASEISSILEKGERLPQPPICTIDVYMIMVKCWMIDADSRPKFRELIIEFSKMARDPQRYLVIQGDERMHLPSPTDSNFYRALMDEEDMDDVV

EPHA2 = target: T5, EPHA2 (Homo sapiens, UniProt P29317); assay: KINOMEscan ScanTK; format: binding
T5 construct: purchased Eurofins DiscoverX KINOMEscan (scanTK)
T5 sequence (P29317 24-976): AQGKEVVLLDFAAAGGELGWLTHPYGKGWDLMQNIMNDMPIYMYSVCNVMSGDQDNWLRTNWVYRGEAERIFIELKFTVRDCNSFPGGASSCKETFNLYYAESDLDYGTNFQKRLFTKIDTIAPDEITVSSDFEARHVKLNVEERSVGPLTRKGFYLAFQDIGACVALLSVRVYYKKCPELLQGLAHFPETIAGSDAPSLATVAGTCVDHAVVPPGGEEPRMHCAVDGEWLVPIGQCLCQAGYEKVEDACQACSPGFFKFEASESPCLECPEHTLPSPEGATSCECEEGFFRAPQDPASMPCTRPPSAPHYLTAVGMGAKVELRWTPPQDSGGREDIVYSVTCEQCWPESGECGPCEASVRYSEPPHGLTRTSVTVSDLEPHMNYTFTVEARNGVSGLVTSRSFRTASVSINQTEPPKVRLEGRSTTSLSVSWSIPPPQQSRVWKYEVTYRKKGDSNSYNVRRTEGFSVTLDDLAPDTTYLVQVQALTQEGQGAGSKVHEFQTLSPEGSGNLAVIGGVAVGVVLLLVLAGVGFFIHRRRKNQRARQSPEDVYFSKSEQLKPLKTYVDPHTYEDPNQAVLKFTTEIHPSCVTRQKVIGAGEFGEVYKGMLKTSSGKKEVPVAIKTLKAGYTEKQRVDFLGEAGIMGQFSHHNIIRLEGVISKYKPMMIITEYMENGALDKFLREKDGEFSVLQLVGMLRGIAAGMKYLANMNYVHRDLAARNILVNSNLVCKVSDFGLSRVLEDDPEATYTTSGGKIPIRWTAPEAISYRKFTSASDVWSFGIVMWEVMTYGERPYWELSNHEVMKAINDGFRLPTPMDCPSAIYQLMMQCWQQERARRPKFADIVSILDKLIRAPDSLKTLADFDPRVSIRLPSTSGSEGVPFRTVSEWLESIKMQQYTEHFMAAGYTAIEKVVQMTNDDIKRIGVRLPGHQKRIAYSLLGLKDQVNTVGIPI

EPHA3 = target: T6, EPHA3 (Homo sapiens, UniProt P29320); assay: KINOMEscan ScanTK; format: binding
T6 construct: purchased Eurofins DiscoverX KINOMEscan (scanTK)
T6 sequence (P29320 21-983): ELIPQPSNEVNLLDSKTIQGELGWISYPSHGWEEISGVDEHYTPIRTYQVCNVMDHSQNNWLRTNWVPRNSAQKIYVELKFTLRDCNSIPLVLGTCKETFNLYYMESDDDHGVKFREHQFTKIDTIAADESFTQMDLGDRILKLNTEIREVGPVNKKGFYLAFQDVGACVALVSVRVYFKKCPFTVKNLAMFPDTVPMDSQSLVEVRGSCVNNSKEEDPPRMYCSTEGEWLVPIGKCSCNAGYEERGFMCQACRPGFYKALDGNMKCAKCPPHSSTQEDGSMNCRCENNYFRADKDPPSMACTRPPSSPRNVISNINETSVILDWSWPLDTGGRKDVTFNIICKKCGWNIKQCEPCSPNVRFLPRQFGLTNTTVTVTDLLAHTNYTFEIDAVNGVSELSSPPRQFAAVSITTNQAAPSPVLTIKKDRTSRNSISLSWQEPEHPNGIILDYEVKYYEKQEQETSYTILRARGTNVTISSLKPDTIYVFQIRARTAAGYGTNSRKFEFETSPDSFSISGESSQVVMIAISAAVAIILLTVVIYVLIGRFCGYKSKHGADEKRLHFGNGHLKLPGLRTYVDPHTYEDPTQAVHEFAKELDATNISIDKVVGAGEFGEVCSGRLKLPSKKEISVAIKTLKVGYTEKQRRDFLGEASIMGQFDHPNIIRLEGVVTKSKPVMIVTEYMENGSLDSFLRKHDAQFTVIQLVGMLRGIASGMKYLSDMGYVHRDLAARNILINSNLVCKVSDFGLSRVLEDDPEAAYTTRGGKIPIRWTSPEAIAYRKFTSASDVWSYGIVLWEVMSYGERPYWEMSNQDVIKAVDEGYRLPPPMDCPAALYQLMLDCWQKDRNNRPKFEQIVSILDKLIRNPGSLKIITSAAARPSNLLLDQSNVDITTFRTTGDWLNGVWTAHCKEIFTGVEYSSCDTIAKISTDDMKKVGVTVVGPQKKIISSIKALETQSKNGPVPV

EPHA4 = target: T7, EPHA4 (Homo sapiens, UniProt P54764); assay: KINOMEscan ScanTK; format: binding
T7 construct: purchased Eurofins DiscoverX KINOMEscan (scanTK)
T7 sequence (P54764 20-986): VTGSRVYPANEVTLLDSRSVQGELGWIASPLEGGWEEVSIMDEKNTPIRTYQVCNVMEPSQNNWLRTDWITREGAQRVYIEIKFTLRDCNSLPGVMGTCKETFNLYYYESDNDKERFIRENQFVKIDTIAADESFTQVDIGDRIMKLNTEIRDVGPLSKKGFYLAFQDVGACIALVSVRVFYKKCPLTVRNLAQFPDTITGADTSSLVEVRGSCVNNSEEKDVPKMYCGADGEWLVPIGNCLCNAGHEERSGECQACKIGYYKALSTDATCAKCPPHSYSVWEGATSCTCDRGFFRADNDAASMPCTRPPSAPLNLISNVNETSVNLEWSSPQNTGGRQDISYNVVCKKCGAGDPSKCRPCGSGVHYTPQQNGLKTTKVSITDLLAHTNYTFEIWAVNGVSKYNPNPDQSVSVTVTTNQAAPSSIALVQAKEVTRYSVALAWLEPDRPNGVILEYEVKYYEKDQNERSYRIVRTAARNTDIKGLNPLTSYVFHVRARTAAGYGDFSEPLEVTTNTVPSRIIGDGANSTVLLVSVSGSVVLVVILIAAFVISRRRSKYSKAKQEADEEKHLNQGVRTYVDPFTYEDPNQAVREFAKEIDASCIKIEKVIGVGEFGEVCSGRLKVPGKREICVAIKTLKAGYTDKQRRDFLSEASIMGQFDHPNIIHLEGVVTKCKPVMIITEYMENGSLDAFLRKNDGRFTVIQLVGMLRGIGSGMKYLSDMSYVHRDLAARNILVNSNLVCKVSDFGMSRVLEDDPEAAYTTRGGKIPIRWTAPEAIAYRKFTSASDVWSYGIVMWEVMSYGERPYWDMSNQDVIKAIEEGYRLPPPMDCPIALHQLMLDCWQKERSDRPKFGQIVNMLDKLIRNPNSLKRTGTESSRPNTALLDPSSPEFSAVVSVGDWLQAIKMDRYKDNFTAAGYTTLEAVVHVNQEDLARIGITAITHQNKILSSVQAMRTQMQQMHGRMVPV

FLT3(D835Y) = target: T8, FLT3(D835Y) (Homo sapiens, UniProt P36888, D835Y); assay: KINOMEscan ScanTK; format: binding
T8 construct: purchased Eurofins DiscoverX KINOMEscan (scanTK)
T8 sequence (P36888 27-993 D835Y): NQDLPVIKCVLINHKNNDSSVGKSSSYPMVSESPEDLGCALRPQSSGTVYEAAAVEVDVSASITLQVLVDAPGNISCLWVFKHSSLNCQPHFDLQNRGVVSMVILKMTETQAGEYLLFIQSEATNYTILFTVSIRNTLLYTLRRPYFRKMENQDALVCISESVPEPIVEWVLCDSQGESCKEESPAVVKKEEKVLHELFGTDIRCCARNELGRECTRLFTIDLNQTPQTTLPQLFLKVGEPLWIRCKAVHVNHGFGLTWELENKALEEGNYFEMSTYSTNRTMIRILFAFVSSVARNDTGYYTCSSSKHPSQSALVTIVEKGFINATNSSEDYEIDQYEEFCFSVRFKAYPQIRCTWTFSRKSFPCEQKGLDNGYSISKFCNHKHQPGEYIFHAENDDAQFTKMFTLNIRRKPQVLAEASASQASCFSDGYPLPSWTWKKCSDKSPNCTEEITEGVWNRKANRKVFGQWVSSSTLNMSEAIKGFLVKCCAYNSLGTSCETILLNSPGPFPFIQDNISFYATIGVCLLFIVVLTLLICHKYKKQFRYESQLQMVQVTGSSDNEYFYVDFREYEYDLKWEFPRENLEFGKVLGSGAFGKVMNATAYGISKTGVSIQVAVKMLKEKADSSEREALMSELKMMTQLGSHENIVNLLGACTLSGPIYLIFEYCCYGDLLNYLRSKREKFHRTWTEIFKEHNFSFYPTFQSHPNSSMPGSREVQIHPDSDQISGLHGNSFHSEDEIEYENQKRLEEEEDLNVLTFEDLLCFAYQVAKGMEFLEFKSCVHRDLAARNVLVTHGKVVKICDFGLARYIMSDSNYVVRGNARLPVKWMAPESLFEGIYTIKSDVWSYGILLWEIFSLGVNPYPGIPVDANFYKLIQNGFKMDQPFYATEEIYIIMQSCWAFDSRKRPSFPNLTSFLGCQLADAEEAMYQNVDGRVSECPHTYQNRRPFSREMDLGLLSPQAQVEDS

FLT3(ITD) = assay: KINOMEscan ScanTK; format: binding; conditions: for % difference (compound - Ib %Control) / %Control: @1000nM
FLT3(ITD,F691L) = assay: KINOMEscan ScanTK; format: binding; conditions: for % difference (compound - Ib %Control) / %Control: @1000nM
KIT(V559D) = target: T9, KIT(V559D) (Homo sapiens, UniProt P10721, V559D); assay: KINOMEscan ScanTK; format: binding
T9 construct: purchased Eurofins DiscoverX KINOMEscan (scanTK)

[4] = target: JAK3, catalytic domain (795–1124) (Homo sapiens, UniProt P52333); assay: PhosphoSens enzymatic IC50 (AssayQuant)
Text: Biochemical enzymatic IC50 data were generated by AssayQuant Technologies (Marlborough, MA) using the PhosphoSens Platform. […] Reaction rate versus log [inhibitor concentration] data were fitted to the four-parameter logistic equation [drawing 1]

T1 sequence (P00519 whole entry F317L): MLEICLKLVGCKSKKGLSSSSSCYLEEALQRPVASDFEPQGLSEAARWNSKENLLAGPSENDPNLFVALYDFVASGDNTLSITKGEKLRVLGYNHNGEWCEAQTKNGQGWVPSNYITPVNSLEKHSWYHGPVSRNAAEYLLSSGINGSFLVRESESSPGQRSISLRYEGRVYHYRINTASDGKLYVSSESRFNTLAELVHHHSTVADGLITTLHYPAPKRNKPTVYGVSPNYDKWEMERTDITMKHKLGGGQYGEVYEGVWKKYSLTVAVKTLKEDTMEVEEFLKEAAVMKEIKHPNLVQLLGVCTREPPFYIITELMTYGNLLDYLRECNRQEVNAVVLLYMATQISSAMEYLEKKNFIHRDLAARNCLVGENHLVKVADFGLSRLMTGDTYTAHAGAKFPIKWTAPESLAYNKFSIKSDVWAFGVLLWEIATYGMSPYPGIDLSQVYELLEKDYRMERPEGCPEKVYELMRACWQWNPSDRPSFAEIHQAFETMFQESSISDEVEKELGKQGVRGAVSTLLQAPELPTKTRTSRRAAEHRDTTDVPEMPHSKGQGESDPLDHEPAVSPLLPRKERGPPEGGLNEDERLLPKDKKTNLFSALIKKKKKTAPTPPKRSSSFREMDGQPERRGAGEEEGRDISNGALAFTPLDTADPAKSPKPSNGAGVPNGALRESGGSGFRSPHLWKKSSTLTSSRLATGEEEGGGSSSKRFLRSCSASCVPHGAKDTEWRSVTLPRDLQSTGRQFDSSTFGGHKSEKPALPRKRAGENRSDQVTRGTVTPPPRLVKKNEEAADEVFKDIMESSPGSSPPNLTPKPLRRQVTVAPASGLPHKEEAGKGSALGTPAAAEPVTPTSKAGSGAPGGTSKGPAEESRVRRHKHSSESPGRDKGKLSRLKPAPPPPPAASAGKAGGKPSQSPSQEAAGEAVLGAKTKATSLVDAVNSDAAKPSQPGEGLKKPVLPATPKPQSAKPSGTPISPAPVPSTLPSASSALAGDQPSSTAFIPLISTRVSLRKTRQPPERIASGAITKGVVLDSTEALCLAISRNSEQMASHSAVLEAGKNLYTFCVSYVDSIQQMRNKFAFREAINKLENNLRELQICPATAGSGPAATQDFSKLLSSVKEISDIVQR

In the case of COC(=O)c1cnc(S(C)(=O)=O)nc1N1CCCC(n2nc(-c3ccc(Oc4ccccc4)cc3)c3c(N)ncnc32)C1 (stereo not drawn) [Compound 8b, Methyl 4-(3-(4-Amino-3-(4-phenoxyphenyl)-1H-pyrazolo[3,4-d]pyrimidin-1-yl)piperidin-1-yl)-2-(methylsulfonyl)pyrimidine-5-carboxylate], the difference in % of control binding versus compound Ib at 1 µM ([1]; @1000nM) is reported as 38%, the remaining binding at 1 µM ([1]; @1000nM, read-out: %Control) is reported as 70% and the remaining binding at 1 µM ([1]; read-out: %Control @1000nM) is reported as 70%. It also gave a difference in %Control vs compound Ib at 1 µM (EGFR(G719C); @1000nM) of 1.7%, a remaining binding at 1 µM (EGFR(G719C); @1000nM, read-out: %Control) of 2.8% and a remaining binding at 1 µM (EGFR(G719C); read-out: %Control @1000nM) of 2.8%. It also gave a difference in %Control versus compound Ib at 1 µM ([2]; @1000nM) of 69.9%, a remaining binding at 1 µM ([2]; @1000nM, read-out: %Control) of 73% and a remaining binding at 1 µM ([2]; read-out: %Control @1000nM) of 73%. For the same compound, the difference in %Control versus compound Ib at 1 µM ([3]; @1000nM) was 89.5%, the remaining binding at 1 µM ([3]; @1000nM, read-out: %Control) was 95% and the remaining binding at 1 µM ([3]; read-out: %Control @1000nM) was 95%. It also gave a difference in %Control versus compound Ib at 1 µM (EPHA2; @1000nM) of -1%, a remaining binding at 1 µM (EPHA2; @1000nM, read-out: %Control) of 99% and a remaining binding at 1 µM (EPHA2; read-out: %Control @1000nM) of 99%. It also gave a difference in % of control versus compound Ib at 1 µM (EPHA3; @1000nM) of 1%, a remaining binding at 1 µM (EPHA3; @1000nM, read-out: %Control) of 77% and a remaining binding at 1 µM (EPHA3; read-out: %Control @1000nM) of 77%. For the same compound, the %Control difference from compound Ib at 1 µM (EPHA4; @1000nM) was 7%, the remaining binding at 1 µM (EPHA4; @1000nM, read-out: %Control) was 98% and the remaining binding at 1 µM (EPHA4; read-out: %Control @1000nM) was 98%. For the same compound, the difference in %Control versus compound Ib at 1 µM (FLT3(D835Y); @1000nM) was 18%, the remaining binding at 1 µM (FLT3(D835Y); @1000nM, read-out: %Control) was 67% and the remaining binding at 1 µM (FLT3(D835Y); read-out: %Control @1000nM) was 67%. For the same compound, the “%Control @1000nM” value (FLT3(ITD)) was 100%, the “% difference (compound - Ib %Control)” value (FLT3(ITD)) was 28% and the “%Control” value (FLT3(ITD)) was 100%. For the same compound, the “%Control @1000nM” value (FLT3(ITD,F691L)) was 96%, the “% difference (compound - Ib %Control)” value (FLT3(ITD,F691L)) was -4% and the “%Control” value (FLT3(ITD,F691L)) was 96%. The remaining binding at 1 µM (KIT(V559D); @1000nM, read-out: %Control) was 75%, the remaining binding at 1 µM (KIT(V559D); read-out: %Control @1000nM) was 75% and the IC50 [4] was greater than 1 µM.
Compound CNC(=O)c1cnc(S(C)(=O)=O)nc1N1CCCC(n2nc(-c3ccc(Oc4ccccc4)cc3)c3c(N)ncnc32)C1 (stereo not drawn) [Compound 8d, 4-(3-(4-Amino-3-(4-phenoxyphenyl)-1H-pyrazolo[3,4-d]pyrimidin-1-yl)piperidin-1-yl)-N-methyl-2-(methylsulfonyl)pyrimidine-5-carboxamide] has a difference in % of control binding versus compound Ib at 1 µM ([1]; @1000nM) of 22%, a remaining binding at 1 µM ([1]; @1000nM, read-out: %Control) of 54% and a remaining binding at 1 µM ([1]; read-out: %Control @1000nM) of 54%. It also gave a difference in %Control vs compound Ib at 1 µM (EGFR(G719C); @1000nM) of -0.45%, a remaining binding at 1 µM (EGFR(G719C); @1000nM, read-out: %Control) of 0.65% and a remaining binding at 1 µM (EGFR(G719C); read-out: %Control @1000nM) of 0.65%. It also gave a difference in %Control versus compound Ib at 1 µM ([2]; @1000nM) of 48.9%, a remaining binding at 1 µM ([2]; @1000nM, read-out: %Control) of 52% and a remaining binding at 1 µM ([2]; read-out: %Control @1000nM) of 52%. For the same compound, the difference in %Control versus compound Ib at 1 µM ([3]; @1000nM) was 36.5%, the remaining binding at 1 µM ([3]; @1000nM, read-out: %Control) was 42% and the remaining binding at 1 µM ([3]; read-out: %Control @1000nM) was 42%. It also gave a difference in %Control versus compound Ib at 1 µM (EPHA2; @1000nM) of -2%, a remaining binding at 1 µM (EPHA2; @1000nM, read-out: %Control) of 98% and a remaining binding at 1 µM (EPHA2; read-out: %Control @1000nM) of 98%. It also gave a difference in % of control versus compound Ib at 1 µM (EPHA3; @1000nM) of 8%, a remaining binding at 1 µM (EPHA3; @1000nM, read-out: %Control) of 84% and a remaining binding at 1 µM (EPHA3; read-out: %Control @1000nM) of 84%. The %Control difference from compound Ib at 1 µM (EPHA4; @1000nM) was 9%, the remaining binding at 1 µM (EPHA4; @1000nM, read-out: %Control) was 100% and the remaining binding at 1 µM (EPHA4; read-out: %Control @1000nM) was 100%. The difference in %Control versus compound Ib at 1 µM (FLT3(D835Y); @1000nM) was 10%, the remaining binding at 1 µM (FLT3(D835Y); @1000nM, read-out: %Control) was 59% and the remaining binding at 1 µM (FLT3(D835Y); read-out: %Control @1000nM) was 59%. For the same compound, the “%Control @1000nM” value (FLT3(ITD)) was 94%, the “% difference (compound - Ib %Control)” value (FLT3(ITD)) was 22% and the “%Control” value (FLT3(ITD)) was 94%. The “%Control @1000nM” value (FLT3(ITD,F691L)) was 100%, the “% difference (compound - Ib %Control)” value (FLT3(ITD,F691L)) was 0% and the “%Control” value (FLT3(ITD,F691L)) was 100%. For the same compound, the remaining binding at 1 µM (KIT(V559D); @1000nM, read-out: %Control) was 60%, the remaining binding at 1 µM (KIT(V559D); read-out: %Control @1000nM) was 60% and the IC50 [4] was greater than 1 µM.
